The results in this text go back to ChEMBL document CHEMBL4622836, “Identification of an ethyl 5,6-dihydropyrazolo[1,5-c]quinazoline-1-carboxylate as a catalytic inhibitor of DNA gyrase” (Bioorg Med Chem, 2020).

The target of one test is DNA gyrase (Escherichia coli, UniProt P0AES4+P0AES6). The test can be described thus: Inhibition of Escherichia coli DNA gyrase assessed as supercoiling activity by fluorescence assay relative to control. The format is protein-complex assay.
For test [1], the target named is T1, DNA gyrase (Escherichia coli) (UniProt P0AES6+P0AES4). As to the kind of experiment: Poison activity at Escherichia coli DNA gyrase assessed as stabilization of DNA cleavage complex by measuring linear plasmid DNA formation relative to control. The class given is protein-complex assay.
Test [2] addresses T1, DNA gyrase (Escherichia coli). As to the kind of experiment: Inhibition of Escherichia coli DNA gyrase super-coiling activity at 25uM. The format is protein-complex assay.
The species entered for the next test is Bos taurus. The test can be described thus: Binding affinity to calf thymus DNA by fluorescence-based DNA binding assay.
Another test deals with DNA. As to the kind of experiment: Displacement of thiazole orange from DNA (unknown origin) by fluorescence assay. The format is nucleic-acid assay.
Test [3] concerns the target T1, DNA gyrase (Escherichia coli). As to the kind of experiment: Inhibition of Escherichia coli DNA gyrase super-coiling activity at 50 uM. The format is protein-complex assay.

Active and inactive are the calls of the source. The calls are words filed in the database; no cut-off is given here.

On to `COc1c(N2CC[C@@H](CN)C2)c(F)cc2c(=O)n(CCN)c(=O)n(C3CC3)c12`, for which, on DNA gyrase, the concentration for half-maximal inhibition (IC50) was above 50 µM.

For the compound `NCCn1c(=O)c2cc(F)c(N3CC[C@@H](CN)C3)cc2n(C2CC2)c1=O`, the IC50 on DNA gyrase was above 50 µM.

As to `Cc1c(N2CC[C@@H](CN)C2)c(F)cc2c(=O)n(N)c(=O)n(C3CC3)c12`, in test [1], the result was Active. For the same compound, the IC50 on DNA gyrase amounted to 0.95 µM.

For the compound `COc1c(N2CC[C@@H](CN)C2)c(F)cc2c(=O)c(C(=O)O)cn(C3CC3)c12`, in test [1], the result was Active. Moreover, the IC50 at DNA gyrase is 0.12 µM.

Take `CCn1c(=O)n2nc(C(=O)O)cc2c2cc(F)c(N3CC[C@@H](CN)C3)cc21`: on DNA gyrase, the half-inhibitory concentration (IC50) was above 50 µM.

For the compound `CCOC(=O)c1cnn2c(=O)n(CC)c3cc(N4CC[C@@H](CN)C4)c(F)cc3c12`, the inhibition result in test [2] and in test [3] was “Active” in each case. Moreover, the result (in test [1]; in the test listed under Bos taurus; in the test with DNA) was inactive. Besides, the IC50 at DNA gyrase turned out to be 3.5 µM.

In the case of `COc1c(N2CC[C@@H](CN)C2)c(F)cc2c(=O)n(CCNC(=N)N)c(=O)n(C3CC3)c12`, the IC50 on DNA gyrase was above 50 µM.

For the compound `Cc1c(N2CC[C@@H](CN)C2)c(F)cc2c(=O)n(CCNC(=N)N)c(=O)n(C3CC3)c12`, the inhibition entry in test [2] and in test [3] was “Active” each time. Besides, in test [1], the outcome was Active. For the same compound, the 50% inhibitory concentration (IC50) at DNA gyrase turned out to be 11.5 µM.

Turning to `N=C(N)NCCn1c(=O)c2cc(F)c(N3CC[C@@H](CN)C3)cc2n(C2CC2)c1=O`, on DNA gyrase, the IC50 is above 50 µM.

As for `Cc1c(N2CC[C@@H](CN)C2)c(F)cc2c(=O)n(CCN)c(=O)n(C3CC3)c12`, the inhibition entry in test [2] and in test [3] was “Active” in each case. Also, in test [1], the result was Active. For the same compound, the IC50 on DNA gyrase came to 17.6 µM.

Take `CCOC(=O)c1cc2c3cc(F)c(N4CC[C@@H](CN)C4)cc3n(CC)c(=O)n2n1`: the IC50 at DNA gyrase was above 50 µM.

For orientation: IC50 means the concentration that inhibits the measured activity by half.
